Source: article PMC7339578, “Multiple circulating alkaloids and saponins from intravenous Kang-Ai injection inhibit human cytochrome P450 and UDP-glucuronosyltransferase isozymes: potential drug–drug interactions” (Chinese Medicine, 2020)
Like-named read-outs stand apart in the source and are kept apart here.

Experiments:
CYP2C8 = target: T1, CYP2C8 (Homo sapiens, UniProt P10632); test: Inhibition of recombinant CYP2C8 (probe paclitaxel); type: in vitro ADME; settings: for IC50: read-out: IC50 towards CYP2C8
T1 sequence (P10632 1-490): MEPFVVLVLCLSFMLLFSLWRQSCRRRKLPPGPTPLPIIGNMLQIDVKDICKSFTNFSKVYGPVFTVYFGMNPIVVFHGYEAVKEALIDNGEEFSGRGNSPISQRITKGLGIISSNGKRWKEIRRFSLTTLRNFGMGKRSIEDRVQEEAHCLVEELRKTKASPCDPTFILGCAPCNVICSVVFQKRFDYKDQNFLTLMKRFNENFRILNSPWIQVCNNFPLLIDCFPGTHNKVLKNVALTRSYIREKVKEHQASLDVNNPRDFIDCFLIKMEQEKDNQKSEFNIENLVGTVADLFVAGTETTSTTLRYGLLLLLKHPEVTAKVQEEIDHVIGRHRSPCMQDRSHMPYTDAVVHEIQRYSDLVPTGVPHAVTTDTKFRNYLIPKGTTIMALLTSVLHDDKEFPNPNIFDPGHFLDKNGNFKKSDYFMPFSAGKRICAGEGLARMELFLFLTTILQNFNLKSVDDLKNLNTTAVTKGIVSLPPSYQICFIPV
Procedure: (§1) In this study, phenacetin (100 μM), coumarin (100 μM), bupropion (100 μM), paclitaxel (60 μM), tolbutamide (200 μM), mephenytoin (100 μM), chlorzoxazone (200 μM) and nifedipine (40 μM) have been used as the probe substrates for CYP1A2, 2A6, 2B6, 2C8, 2C9, 2C19, 2E1 and 3A4, respectively.

[1] = Stability tests of analytes in rat plasma QC samples; type: in vitro ADME; settings: rat plasma
Procedure: […] The dilution integrity was investigated by analyzing six replicate samples with each analyte, and each analyte were diluted 10-fold with blank rat matrix. Furthermore, the diluted samples were analyzed using freshly prepared calibration curve to calculate RE and RSD, which should be no more than ± 15% as criterion.

CYP2B6 = target: T2, CYP2B6 (Homo sapiens, UniProt P20813); test: Inhibition of recombinant CYP2B6 (probe bupropion); type: in vitro ADME; settings: recombinant isozyme; mean ± SD of triplicate; unit not given (IC50 classes in μM); read-out: IC50 towards CYP2B6
T2 sequence (P20813 1-491): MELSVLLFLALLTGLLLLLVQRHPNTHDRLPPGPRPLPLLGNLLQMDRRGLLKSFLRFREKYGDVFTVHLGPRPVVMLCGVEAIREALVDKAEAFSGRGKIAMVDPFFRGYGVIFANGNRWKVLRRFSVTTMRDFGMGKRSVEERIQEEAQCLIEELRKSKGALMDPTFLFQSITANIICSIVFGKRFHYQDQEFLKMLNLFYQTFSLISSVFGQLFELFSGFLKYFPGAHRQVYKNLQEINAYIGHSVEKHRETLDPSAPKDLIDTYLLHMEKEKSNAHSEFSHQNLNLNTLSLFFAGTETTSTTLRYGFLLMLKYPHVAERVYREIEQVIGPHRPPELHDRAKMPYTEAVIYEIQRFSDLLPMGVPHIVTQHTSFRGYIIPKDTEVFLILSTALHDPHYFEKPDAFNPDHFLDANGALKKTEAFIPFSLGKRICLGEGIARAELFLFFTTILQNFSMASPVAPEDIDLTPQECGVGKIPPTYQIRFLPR
Procedure: as §1

CYP2E1 = CYP2E1 (Homo sapiens, UniProt P05181); test: Inhibition of recombinant CYP2E1 (probe chlorzoxazone)
Sequence of CYP2E1 (P05181 whole entry): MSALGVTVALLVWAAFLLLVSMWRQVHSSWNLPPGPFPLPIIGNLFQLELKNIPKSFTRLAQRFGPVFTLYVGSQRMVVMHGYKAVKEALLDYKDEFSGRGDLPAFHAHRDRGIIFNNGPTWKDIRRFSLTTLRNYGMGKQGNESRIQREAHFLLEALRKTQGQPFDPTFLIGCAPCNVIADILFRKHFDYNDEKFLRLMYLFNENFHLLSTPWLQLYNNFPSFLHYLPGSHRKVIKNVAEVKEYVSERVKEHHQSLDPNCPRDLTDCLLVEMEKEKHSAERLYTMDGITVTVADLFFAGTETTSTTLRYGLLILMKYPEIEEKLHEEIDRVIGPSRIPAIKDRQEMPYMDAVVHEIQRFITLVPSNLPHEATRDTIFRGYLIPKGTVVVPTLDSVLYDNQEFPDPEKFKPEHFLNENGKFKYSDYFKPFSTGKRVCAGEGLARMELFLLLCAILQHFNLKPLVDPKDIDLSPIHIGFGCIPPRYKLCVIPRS

CC(C)=CCC[C@](C)(O[C@@H]1O[C@H](CO)[C@@H](O)[C@H](O)[C@H]1O)[C@H]1CC[C@]2(C)[C@@H]1[C@H](O)C[C@@H]1[C@@]3(C)CC[C@H](O)C(C)(C)[C@@H]3[C@@H](O[C@@H]3O[C@H](CO)[C@@H](O)[C@H](O)[C@H]3O[C@@H]3O[C@@H](C)[C@H](O)[C@@H](O)[C@H]3O)C[C@]12C [Compound C9, Ginsenoside Re]
inhibition type (smallest AIC and SC) (CYP2C8; CYP2C8): mixed-type inhibition | Ki (CYP2C8; CYP2C8, competitive model): 8.2 ± 1.1 µM | Ki (CYP2C8; CYP2C8, mixed-type model): 13.3 ± 2.9 µM | α (CYP2C8; CYP2C8, mixed-type model): 4.2 ± 2.3 | Ki (CYP2C8; CYP2C8, noncompetitive model): 26.5 ± 2.2 µM | Cmax/Ki ([I]/Ki) (CYP2C8; CYP2C8, selected model, rat plasma Cmax): 0.1 | IC50 (CYP2C8; paclitaxel 60 μM): 24 µM | IC50 (CYP2C8; recombinant isozyme, mean ± SD of triplicate, unit not given (IC50 classes in μM)): 24 ± 10.7 µM | At -80 °C for 48 h, Mean±SD ([1]; nominal conc. 40 nM): 37.07 ± 2.41 nM | At -80 °C for 48 h, RE ([1]; nominal conc. 40 nM): -12.37% | Extracted samples at 8 °C for 18 h, Mean±SD ([1]; nominal conc. 40 nM): 39.68 ± 3.10 nM | Extracted samples at 8 °C for 18 h, RE ([1]; nominal conc. 40 nM): -8.46% | Short-term stability at room temperature for 6 h, Mean±SD ([1]; nominal conc. 40 nM): 42.26 ± 4.77 nM | Short-term stability at room temperature for 6 h, RE ([1]; nominal conc. 40 nM): 12.91% | Three freeze-thaw cycles (-80 °C ↔ 23 °C), Mean±SD ([1]; nominal conc. 40 nM): 39.18 ± 1.53 nM | Three freeze-thaw cycles (-80 °C ↔ 23 °C), RE ([1]; nominal conc. 40 nM): -5.32% | At -80 °C for 48 h, Mean±SD ([1]; nominal conc. 200 nM): 181.77 ± 7.39 nM | At -80 °C for 48 h, RE ([1]; nominal conc. 200 nM): -12.74% | Extracted samples at 8 °C for 18 h, Mean±SD ([1]; nominal conc. 200 nM): 193.91 ± 26.18 nM | Extracted samples at 8 °C for 18 h, RE ([1]; nominal conc. 200 nM): -12.50% | Short-term stability at room temperature for 6 h, Mean±SD ([1]; nominal conc. 200 nM): 175.60 ± 2.61 nM | Short-term stability at room temperature for 6 h, RE ([1]; nominal conc. 200 nM): -13.13% | Three freeze-thaw cycles (-80 °C ↔ 23 °C), Mean±SD ([1]; nominal conc. 200 nM): 205.17 ± 19.51 nM | Three freeze-thaw cycles (-80 °C ↔ 23 °C), RE ([1]; nominal conc. 200 nM): 11.83% | At -80 °C for 48 h, Mean±SD ([1]; nominal conc. 800 nM): 836.79 ± 51.65 nM | At -80 °C for 48 h, RE ([1]; nominal conc. 800 nM): 10.56% | Extracted samples at 8 °C for 18 h, Mean±SD ([1]; nominal conc. 800 nM): 827.44 ± 80.86 nM | Extracted samples at 8 °C for 18 h, RE ([1]; nominal conc. 800 nM): 12.75% | Short-term stability at room temperature for 6 h, Mean±SD ([1]; nominal conc. 800 nM): 724.25 ± 14.79 nM | Short-term stability at room temperature for 6 h, RE ([1]; nominal conc. 800 nM): -11.32% | Three freeze-thaw cycles (-80 °C ↔ 23 °C), Mean±SD ([1]; nominal conc. 800 nM): 818.48 ± 84.93 nM | Three freeze-thaw cycles (-80 °C ↔ 23 °C), RE ([1]; nominal conc. 800 nM): 12.80% | IC50 (CYP2B6): > 100 µM | IC50 (CYP2E1): > 100 µM
